Results: patent publication US20250268982A1, “COMPOSITIONS AND METHODS FOR TREATMENT AND/OR PROPHYLAXIS OF PROTEINOPATHIES” (REGAIN THERAPEUTICS SWEDEN AB, priority 2021, published 2025)

Tests used:
[1] = Thioflavin-T kinetics assay of aggregation propensity; type: physicochemical; details: 500 μg/ml peptide in normal saline, 12-24 h; FIGS. 6A, 6B
Description: THT method. ThT (Sigma-Aldrich) was prepared at 4 mM in MQ water. 50 μL of 500 μg/ml peptide (in normal saline) were incubated with 250 μL of 2.4 mM ThT solution (in water). ThT fluorescence was measured at 440 nm excitation and 480 nm emission in a black, clear-bottom 96-well plates (Corning, USA) at 10-15 min intervals (from bottom with periodic shaking) over 12-24 h on SpectraMax i3 microplate reader (Molecular Devices, USA). Curves were fitted using GraphPad Prism software.

5XFAD mice [2] = experiment: Nest building behavioural test in 5XFAD mice; type: in vivo, mouse; details: peptide i.v., FIGS. 4A-4C
Description: Female wild type and 5xFAD transgenic mice (Jackson laboratories) were used for the mouse behavioural experiment. Mice were individually housed in controlled humidity, temperature and light conditions, and had ad libitum access to food and water. Randomization to treatment groups was carried out by using GraphPad QuickCalcs (GraphPad Software, San Diego, CA, USA), and all data analysis was performed blinded to the experimental groups. […] Every effort was made to minimize the harm and suffering of the animals. The mice were treated with the vehicle or peptide preparations once a week i.v. starting at the age of 1 month until 3 months of age. Behavioral testing: the 5xFAD mice have deficits in nest building test starting at 3 months of age. Briefly, the soft bedding material and plastic shelter tube are moved to the one end of the cage and soft tissue paper (17 cm×17 cm) is placed in the other end of the cage. After 24 hours, a picture of the cage is taken, and the points given according to the set scale. 0 points are given if tissue paper remains untouched, 5 points are given when animal incorporates tissue into nest.

ERK1/2 phosphorylation = ERK1/2 phosphorylation ELISA in SH-SY5Y cells; type: cell-based; details: 30 pM peptide, 5 minutes, FIG. 16
Description: Phosphorylation of ERK is important for cell proliferation, neurogenesis and synaptic plasticity, and is downstream of calcium influx through the α7 receptor. To obtain the data shown in FIG. 16, SH-SY5Y cells were treated with 30 pM peptide for 5 minutes, then lysed and ERK phosphorylation quantified via a commercial ELISA kit.

5XFAD mice [3] = experiment: Plaque load by immunohistochemistry in brains of 5XFAD mice; type: in vivo, mouse; details: 5XFAD mice treated for five weeks
Description: Female wild type and 5xFAD transgenic mice (Jackson laboratories) were used for the mouse behavioural experiment. Mice were individually housed in controlled humidity, temperature and light conditions, and had ad libitum access to food and water. Randomization to treatment groups was carried out by using GraphPad QuickCalcs (GraphPad Software, San Diego, CA, USA), and all data analysis was performed blinded to the experimental groups. All the animal experiments followed the Council of Europe Legislation and Regulation for Animal Protection and are approved by the National Animal Experiment Board of Finland. Every effort was made to minimize the harm and suffering of the animals. […]
Immunohistochemistry: The brains were post-fixed in 4% paraformaldehyde (PFA, Sigma-Aldrich, St. Louis, MO, USA) for 20 hours, followed by cryoprotection in 30% sucrose for 48 hours. […] For quantification of the immunoreactivities, hippocampal areas were imaged using 4 or 10× magnification on an AX70 microscope (Olympus corporation, Tokyo, Japan) with an adjacent digital camera (Color View 12 or F-View, Soft imaging system, Muenster, Germany) running AnalySis software (Soft Imaging System). Quantification of the immunoreactivities was performed using ImagePro Plus software (Media Cybernetics Inc., Rockville, MD, USA) at a predefined range and presented as relative immunoreactive area. […]

| Substance | aggregation propensity (thioflavin-T fluorescence) [1] | phenotype restoration / rescue (behaviour) (5XFAD mice [2]) | downstream ERK1/2 phosphorylation (ERK1/2 phosphorylation) | phenotype restoration / rescue (behaviour) (5XFAD mice [2]; listed as RT3) | plaque load in the cortex versus vehicle treated animals (5XFAD mice [3]; FIG. 5A) | plaque accumulation in the hippocampi versus vehicle treated animals (5XFAD mice [3]; FIG. 5B) |
| --- | --- | --- | --- | --- | --- | --- |
| SEQ ID NO:88: Aβ42 analogue having a proline (P) substitution in place of methionine (M) at position 35 (M35P) | lower aggregation propensity than the peptide having SEQ ID NO:3 | phenotype rescue | induces downstream ERK1/2 phosphorylation |  |  |  |
| SEQ ID NO: 190: Aβ42 analogue with N-methyl methionine substituted for the naturally occurring methionine at position 35 | lower aggregation propensity than wild type Aβ42 |  | induces downstream ERK1/2 phosphorylation |  |  |  |
| SEQ ID NO: 192: Aβ42 analogue with pyrrolysine substituted for the naturally occurring methionine at position 35 | lower aggregation propensity than wild type Aβ42 |  |  |  |  |  |
| SEQ ID NO:3: Aβ40: Aβ42 with deletion of residues 41 and 42 of the beta-sheet aggregation domain | lower aggregation propensity than wild type Aβ42 | phenotype restoration |  | phenotype rescue | reduced plaque load in the cortex | decreased level of plaque accumulation in the hippocampi |
